Counter-ions that a name gives are not always drawn.

In this assay the target is T1, human GPR40 (Homo sapiens, UniProt O14842).
T1 construct: expressed in transfected cells
T1 sequence (O14842 whole entry): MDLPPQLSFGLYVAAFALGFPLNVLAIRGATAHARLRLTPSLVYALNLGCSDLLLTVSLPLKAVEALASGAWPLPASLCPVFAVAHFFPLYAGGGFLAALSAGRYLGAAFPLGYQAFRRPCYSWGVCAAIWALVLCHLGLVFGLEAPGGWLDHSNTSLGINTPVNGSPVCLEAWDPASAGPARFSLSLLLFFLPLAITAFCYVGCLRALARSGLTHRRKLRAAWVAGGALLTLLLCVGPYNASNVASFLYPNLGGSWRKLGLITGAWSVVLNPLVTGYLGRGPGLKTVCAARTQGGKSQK
Nature of the assay: Ca2+ mobilization (FLIPR) in a stable GPR40-expressing cell; GPR40 agonist activity. The note with it: compound concentration corresponding to 50% PosiC, 100% = intracellular calcium level induced by 80 μM palmitic acid. The format is cell-based. As to the method: Evaluation of effect of test compounds on Ca^2+ mobilization by using a stable GPR40-expressing cell A stable human GPR40-expressing HEK293 cell was used. A cell suspension was prepared such that the above-mentioned cells were present at 6×10^5 cells/mL in a cell culture medium (D-MEM (Nikken Bio Medical Laboratory) supplemented with 10% (v/v) fetal bovine serum (Biowest) and 1% (v/v) penicillin-streptomycin solution (Invitrogen)). The cell suspension was plated in a 384-well plate (poly-D-lysine coated plate; Falcon) in a volume of 25 μl/well, and the plate was incubated at 37° C. in an atmosphere of 5% CO2 overnight. Each test compound was added to the cell at each concentration as below, and then the change in intracellular calcium level was measured by FLIPR^TETRA (Molecular Devices). Before the FLIPR assay, the following preparative solutions were prepared. First, an assay buffer was prepared for use in the preparation of a fluorescent dye solution and a diluent buffer solution. The assay buffer was prepared by adding 1M HEPES solution (Invitrogen) to Hanks' Balanced Salt Solution (Invitrogen), followed by adjusting the pH to 7.4 with 1M NaOH (Nacalai Tesque). Next, the fluorescent dye solution and the diluent buffer solution were prepared. The fluorescent dye solution was prepared in accordance with the instruction manual attached to Fluo-4NW calcium assay kit (Invitrogen), followed by addition of bovine serum albumin (Sigma) to a final concentration of 0.1% (w/v). The diluent buffer solution was prepared by adding bovine serum albumin (Sigma) to the assay buffer to give a final concentration of 0.1% (w/v). After removing a medium supernatant from the cell culture plate incubated overnight, the fluorescent dye solution was added to the plate in a volume of 25 μl/well. The plate was incubated at 37° C. in an atmosphere of 5% CO2 for 90 minutes to promote the fluorescent dye uptake in the cell. Meanwhile, the test compounds (i.e., the compounds prepared in Examples) dissolved in dimethyl sulfoxide (DMSO; Nacalai Tesque) were diluted with the diluent buffer solution, to prepare each compound solution at each concentration. In addition, a palmitic acid solution was prepared as a positive control solution (hereinafter abbreviated as PosiC). A 40 μl aliquot of each sample solution prepared as above was added to each well of a 384-well polypropylene plate to prepare a compound plate. Finally, after the sufficient uptake of the fluorescent dye in the cell, the cell plate and the compound plate were set to FLIPR^TETRA. After the above pretreatment, the change in intracellular calcium level was measured by FLIPR^TETRA upon addition of 25 μl of each test compound solution at each concentration. The GPR40 agonist activity of each test compound at each concentration was determined as a relative activity level (% PosiC) with the intracellular calcium level induced by 80 μM palmitic acid (a GPR40 agonist) set to 100%. Next, each compound concentration corresponding to 50% PosiC was calculated based on the % PosiC value, to compare between agonist activities of the test compounds. In the tables, “++++” indicates 0.01 μM or more but less than 0.1 μM, “+++” indicates 0.1 μM or more but less than 1 μM, “++” indicates 1 μM or more but less than 10 μM, and “+” indicates 10 μM or more for 50% posiC value. In the tables, “N.T.” indicates “not tested”.
With `CCC[C@@H](CC(=O)O)c1ccc(OCC2CCCC3(CCCCC3)C2)cc1` (mixture of isomers) [Example 78, (3S)-3-[4-(spiro[5.5]undec-2-ylmethoxy)-phenyl]-hexanoic acid], the EC50 was 1000 to 10000 nM.
As for `COC(CC(=O)O)c1ccc(OCC2CCCC3(CCCCC3)C2)cc1` (racemic) [Example 80, 3-methoxy-3-[4-(spiro[5.5]undec-2-ylmethoxy)-phenyl]-propionic acid], the figure is 1000 to 10000 nM; as for `CC(C)OC(CC(=O)O)c1ccc(OCC2CCCC3(CCCCC3)C2)cc1` (racemic) [Example 81, 3-isopropoxy-3-[4-(spiro[5.5]undec-2-ylmethoxy)-phenyl]-propionic acid], 100 to 1000 nM; as for `CC#CC(CC(=O)O)c1ccc(COC2CCCC3(CCCCC3)C2)cc1` (racemic) [Example 82, 3-[4-(spiro[5.5]undec-2-yloxymethyl)-phenyl]-hex-4-ynoic acid], 1000 to 10000 nM.
The figure for `CCCOC(CC(=O)O)c1ccc(OCC2CCCC3(CCCCC3)C2)cc1` (racemic) [Example 83, 3-propoxy-3-[4-(spiro[5.5]undec-2-ylmethoxy)-phenyl]-propionic acid] is 100 to 1000 nM; for `CCC#CC(CC(=O)O)c1ccc(OCC2CCCC3(CCCCC3)C2)cc1` (racemic) [Example 84, 3-[4-(spiro[5.5]undec-2-ylmethoxy)-phenyl]-hept-4-ynoic acid] it is 1000 to 10000 nM; for `C#CC(CC(=O)O)c1ccc(OCC2CCCC3(CCCCC3)C2)cc1` (racemic) [Example 85, 3-[4-(spiro[5.5]undec-2-ylmethoxy)-phenyl]-pent-4-ynoic acid] it is 1000 to 10000 nM.
With `C=CC(CC(=O)O)c1ccc(OCC2CCCC3(CCCCC3)C2)cc1` (racemic) [Example 86, 3-[4-(spiro[5.5]undec-2-ylmethoxy)-phenyl]-pent-4-enoic acid], the EC50 lay within 1000 to 10000 nM.
With `CCC(CC(=O)O)c1ccc(OCC2CCCC3(CCCCC3)C2)cc1` (racemic) [Example 87, 3-[4-(spiro[5.5]undec-2-ylmethoxy)-phenyl]-pentanoic acid], the EC50 was 1000 to 10000 nM.
In the case of `O=C(O)CCc1ccc(OCC2CCCC3(CCCC3)C2)nc1` (racemic) [Example 113, 3-[6-(spiro[4.5]dec-7-ylmethoxy)-pyridin-3-yl]-propionic acid hydrochloride], the EC50 is 1000 to 10000 nM.
The figure for `COC1CCC2(CCC(COc3ccc(CCC(=O)O)cc3)CC2)CC1` (racemic) [Example 114, 3-[4-(9-methoxy-spiro[5.5]undec-3-ylmethoxy)-phenyl]-propionic acid] is not below 10000 nM; for `CC1(C)CC(COc2ccc(CCC(=O)O)cc2)CC2(CCCC2)C1` (racemic) [Example 115, 3-[4-(9,9-dimethyl-spiro[4.5]dec-7-ylmethoxy)-phenyl]-propionic acid] it is 1000 to 10000 nM.
`CC#C[C@@H](CC(=O)O)c1ccc(OCC2CCCCC3(CC3)C2)cc1` (mixture of isomers) [Example 116, (3S)-3-[4-(spiro[2.6]non-5-ylmethoxy)-phenyl]-hex-4-ynoic acid]: the EC50 was 1000 to 10000 nM.
As for `CC#C[C@@H](CC(=O)O)c1ccc(OCC2CCC3(CCC3)C2)cc1` (mixture of isomers) [Example 118, (3S)-3-[4-(spiro[3.4]oct-6-ylmethoxy)-phenyl]-hex-4-ynoic acid], the figure is 100 to 1000 nM.
The figure for `CC#C[C@@H](CC(=O)O)c1ccc(OCC2CCCC3(CCCCC3)C2)cc1` (single isomer, unassigned) [Example 32] is 100 to 1000 nM; for `CC#C[C@@H](CC(=O)O)c1ccc(OCC2CCCC3(CCCC3)C2)cc1` (single isomer, unassigned) [Example 37] it is 100 to 1000 nM; for `CC#C[C@@H](CC(=O)O)c1ccc(OCC2CCCC3(CCCC3)C2)cc1` (single isomer, unassigned) [Example 39] it is 100 to 1000 nM.
In the case of `O=C(O)CCc1ccc(OCC2CCCC3(CCCCC3)C2)cc1` (single isomer, unassigned) [Example 88, 3-[4-(spiro[5.5]undec-2-ylmethoxy)-phenyl]-propionic acid (chiral: A)], the EC50 lay in the range of 1000 to 10000 nM.
Take `O=C(O)CCc1ccc(OCC2CCCC3(CCCCC3)C2)cc1` (single isomer, unassigned) [Example 89, 3-[4-(spiro[5.5]undec-2-ylmethoxy)-phenyl]-propionic acid (chiral: B)]: the EC50 was 1000 to 10000 nM.
Regarding `CCOC(CC(=O)O)c1ccc(OCC2=CC3(CCCCC3)CCC2)cc1` (single isomer, unassigned; (+)) [Example 44, (+)-3-ethoxy-3-[4-(spiro[5.5]undec-1-en-2-ylmethoxy)-phenyl]-propionic acid], the EC50 was 1000 to 10000 nM.
As for `CCOC(CC(=O)O)c1ccc(OCC2=CC3(CCCCC3)CCC2)cc1` (single isomer, unassigned; (-)) [Example 42, (−)-3-ethoxy-3-[4-(spiro[5.5]undec-1-en-2-ylmethoxy)-phenyl]-propionic acid], the figure is 10 to 100 nM; as for `CCOC(CC(=O)O)c1ccc(OCC2=CC3(CCCCC3)CCC2)cc1` (single isomer, unassigned; (-)) [Example 120, (−)-3-ethoxy-3-[4-(spiro[5.5]undec-1-en-2-ylmethoxy)-phenyl]-propionic acid L-lysine salt], 100 to 1000 nM.
As for `CC#C[C@@H](CC(=O)O)c1ccc(OCC2=CCCC3(CCCCC3)C2)cc1` [Example 1, (S)-3-[4-(spiro[5.5]undec-2-en-2-ylmethoxy)-phenyl]-hex-4-ynoic acid], the figure is 10 to 100 nM; as for `CC#C[C@@H](CC(=O)O)c1ccc(OCC2=CCCC3(CCCCC3)C2)cc1` [Example 2, (S)-3-[4-(spiro[5.5]undec-2-en-2-ylmethoxy)-phenyl]-hex-4-ynoic acid sodium salt], 10 to 100 nM.
Turning to `CC#C[C@@H](CC(=O)O)c1ccc(OCC2=CCCC3(CCCCCC3)C2)cc1` [Example 4, (S)-3-[4-(spiro[5.6]dodec-2-en-2-ylmethoxy)-phenyl]-hex-4-ynoic acid sodium salt], the EC50 is 10 to 100 nM.
Regarding `CC#C[C@@H](CC(=O)O)c1ccc(OCC2=CCCC3(CCCC3)C2)cc1` [Example 6, (S)-3-[4-(spiro[4.5]dec-7-en-7-ylmethoxy)-phenyl]-hex-4-ynoic acid sodium salt], the EC50 is 100 to 1000 nM.
Consider `CC#C[C@@H](CC(=O)O)c1ccc(OCC2=CC3(CCCC3)CCC2)cc1` [Example 8, (S)-3-[4-(spiro[4.5]dec-6-en-7-ylmethoxy)-phenyl]-hex-4-ynoic acid sodium salt], for which the EC50 was 100 to 1000 nM.
The figure for `CC#C[C@@H](CC(=O)O)c1ccc(OCC2=CC3(CCCCC3)CCC2)cc1` [Example 9, (S)-3-[4-(spiro[5.5]undec-1-en-2-ylmethoxy)-phenyl]-hex-4-ynoic acid] is 100 to 1000 nM.
For the molecule `CC#C[C@@H](CC(=O)O)c1ccc(OCC2=CCC3(CCCC3)C2)cc1` [Example 11, (S)-3-[4-(spiro[4.4]non-2-en-2-ylmethoxy)-phenyl]-hex-4-ynoic acid], the EC50 lay in the range of 100 to 1000 nM.
The figure for `CC#C[C@@H](CC(=O)O)c1ccc(OCC2=CCC3(CCCCC3)C2)cc1` [Example 14, (S)-3-[4-(spiro[4.5]dec-2-en-2-ylmethoxy)-phenyl]-hex-4-ynoic acid sodium salt] is 100 to 1000 nM.
On to `CC#C[C@@H](CC(=O)O)c1ccc(OCC2=CC3(CCCCC3)CC2)cc1` [Example 16, (S)-3-[4-(spiro[4.5]dec-1-en-2-ylmethoxy)-phenyl]-hex-4-ynoic acid sodium salt], for which the EC50 was 100 to 1000 nM.

By EC50 is commonly meant the concentration that produces a half-maximal response.

Values taken from patent US8299296B2, “Spiro compounds and pharmaceutical use thereof” (Japan Tobacco Inc., priority 2007, dated 2012).
